# Laboratory results: ChEMBL document CHEMBL1145388, “Pyridazinoquinolinetriones as NMDA glycine-site antagonists with oral antinociceptive activity in a model of neuropathic pain” (J Med Chem, 2007)
# Key:
# physchem = conditions: octanol/water, pH 7.4
# in vivo = conditions: Sprague-Dawley, rat, po, 10 mg/kg
SMILES,logD (physchem),bioavailability at 24 h (in vivo) [%]
CS(=O)(=O)O.O=c1c2ccc(Cl)cc2[nH]c2c(O)nn(Cc3ccncc3)c(=O)c12,< 0.3,5
CS(=O)(=O)O.O=c1c2ccc(Cl)cc2[nH]c2c(O)nn(Cc3cnccn3)c(=O)c12,< 0.5,37
O=c1[nH]n(Cc2nccs2)c(=O)c2c(=O)c3ccc(Cl)cc3[nH]c12,< 0.5,
O=c1[nH]n(CC#Cc2ccccc2)c(=O)c2c(=O)c3ccc(Cl)cc3[nH]c12,,16
C#CC(C)n1[nH]c(=O)c2[nH]c3cc(Cl)ccc3c(=O)c2c1=O (stereo not drawn),< 0.5,
O=c1c2ccc(Cl)cc2[nH]c2c(O)nn(Cc3cc4ccccc4o3)c(=O)c12,2.1,25
CC(c1cc2ccccc2o1)n1[nH]c(=O)c2[nH]c3cc(Cl)ccc3c(=O)c2c1=O (stereo not drawn),2,
Cc1ccc(Cn2nc(O)c3[nH]c4cc(Cl)ccc4c(=O)c3c2=O)o1,< 0.5,
O=c1c2ccc(Cl)cc2[nH]c2c(O)nn(Cc3ccsc3)c(=O)c12,1.2,1.2
CC(c1ccsc1)n1[nH]c(=O)c2[nH]c3cc(Cl)ccc3c(=O)c2c1=O (stereo not drawn),0.9,
Cc1ccsc1Cn1[nH]c(=O)c2[nH]c3cc(Cl)ccc3c(=O)c2c1=O,1.4,28
COC(=O)c1ccc(Cn2nc(O)c3[nH]c4cc(Cl)ccc4c(=O)c3c2=O)cc1,1.17,7
COC(=O)c1ccc(C(C)n2[nH]c(=O)c3[nH]c4cc(Cl)ccc4c(=O)c3c2=O)cc1 (stereo not drawn),1.3,
O=C(O)c1ccc(Cn2[nH]c(=O)c3[nH]c4cc(Cl)ccc4c(=O)c3c2=O)cc1,< 0.5,
CC(C#Cc1ccsc1)n1[nH]c(=O)c2[nH]c3cc(Cl)ccc3c(=O)c2c1=O (stereo not drawn),1.9,
CC(C#Cc1cccs1)n1[nH]c(=O)c2[nH]c3cc(Cl)ccc3c(=O)c2c1=O (stereo not drawn),2.4,
COCCNC(=O)c1cccc(Cn2[nH]c(=O)c3[nH]c4cc(Cl)ccc4c(=O)c3c2=O)c1,1.2,
CN(C)C(=O)Nc1ccc(Cn2[nH]c(=O)c3[nH]c4cc(Cl)ccc4c(=O)c3c2=O)cc1,1.1,< 1
CC(C#Cc1ccccc1)n1[nH]c(=O)c2[nH]c3cc(Cl)ccc3c(=O)c2c1=O (stereo not drawn),1.4,
Cc1cc(Cn2[nH]c(=O)c3[nH]c4cc(Cl)ccc4c(=O)c3c2=O)oc1C,1,
O=c1[nH]n(Cc2cc3ccccc3s2)c(=O)c2c(=O)c3ccc(Cl)cc3[nH]c12,,12
O=c1[nH]n(Cc2ccno2)c(=O)c2c(=O)c3ccc(Cl)cc3[nH]c12,< 0.5,40
CCC(c1ccncc1)n1[nH]c(=O)c2[nH]c3cc(Cl)ccc3c(=O)c2c1=O (racemic),0.6,
CC(c1ccncc1)n1[nH]c(=O)c2[nH]c3cc(Cl)ccc3c(=O)c2c1=O.CS(=O)(=O)O (racemic),< 0.3,30
